Results reported in patent publication US7144919B1, “Polyoxyethylene-polyoxypropylene vitamin E and process for preparation thereof” (priority 2000, dated 2006).

Experiment: Anti-oxidation activity: peroxide value of linoleic acid
Conditions: sample 0.5% in linoleic acid, incubator 40° C.
Experimental: The novel POE-POP vitamin E of the present invention was examined for anti-oxidation activity, using linoleic acid. Readily being oxidized, linoleic acid can be used in determining the ability of an antioxidant of interest to inhibit the oxidation of linoleic acid. Used in this test was reagent-grade linoleic acid that comprised linoleic acid 85% and linolenic acid 15%.
POE-POP vitamin E prepared in Example 1, 2 or 3 was added in an amount of 0.5% to linoleic acid while vitamin E, vitamin E acetate, POE (12EO) vitamin E, POE (24 EO)-cholesterol, POE (20 EO) sorbitan monostearate, and POE (12 EO) nonylphenylether were also used as references. These samples were stored in an incubator maintained at 40° C. After two and ten days of incubation, a peroxide value was determined for each sample. In detail, in 1.0 g of each sample was placed in a 250 ml Erlenmeyer flask and dissolved with 10 ml of chloroform. To the solution, 15 ml of glacial acetic acid and 1 ml of saturated potassium iodide solution were added, and a stopper was put in the flask. After being vigorously shaken, the flask was allowed to stand in a dark place for 5 min. Thereafter, the flask was added with 75 ml of distilled water and vigorously shaken. Free iodine was titrated with a 0.01 N sodium thiosulfate solution, using a starch solution as an indicator. The point at which the solution became colorless was regarded as the end point. The peroxide value was calculated as follows:
[formula] wherein, S: Amount of 0.01 N sodium thiosulfate solution consumed by sample (ml) B: Amount of 0.01 N sodium thiosulfate solution consumed in blank test tube (ml) F: Factor of 0.01 N sodium thiosulfate solution

Q: What does the source list for `CC(=O)Oc1c(C)c(C)c2c(c1C)CCC(C)(CCC[C@H](C)CCC[C@H](C)CCCC(C)C)O2` (stereo partly shown) [Vitamin E acetate]?
A: Peroxide Values (Day 2): 26.2; Peroxide Values (Day 10): 122.3

Q: Which “Peroxide Values” (Day 2) does the source give for Vitamin E here?
A: 21.6

Q: What about the “Peroxide Values” (Day 10) of the same compound?
A: 58.9
